From US20210380606A1, “5-AZAINDAZOLE DERIVATIVES AS ADENOSINE RECEPTOR ANTAGONISTS” (Merck Patent GmbH, priority 2018, published 2021)
Where two headings read alike, the source gives them in different places.

Legend:
human A2B receptors = target: T1, human A2B receptors (Homo sapiens, UniProt P29275); test: Functional human A2B receptor activity, recombinant HEK293 cells, cAMP (HTRF); assay type: cell-based
T1 construct: expressed in transfected cells; host or cells: HEK293
T1 sequence (P29275 1-332): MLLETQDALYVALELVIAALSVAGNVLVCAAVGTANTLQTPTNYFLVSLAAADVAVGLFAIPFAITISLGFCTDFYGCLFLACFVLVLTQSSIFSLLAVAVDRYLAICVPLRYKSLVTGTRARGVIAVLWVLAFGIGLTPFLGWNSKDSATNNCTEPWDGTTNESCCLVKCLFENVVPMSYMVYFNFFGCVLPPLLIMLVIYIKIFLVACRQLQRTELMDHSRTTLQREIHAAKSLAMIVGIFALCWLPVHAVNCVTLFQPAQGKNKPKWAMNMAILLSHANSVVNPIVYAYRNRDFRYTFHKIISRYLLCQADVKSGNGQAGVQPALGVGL
Procedure: (§1) The functional activities of human A2A and A2B receptors were determined by quantification of cAMP, being the second messenger for adenosine receptors.
(§2) After a 15 min incubation, HTRF reagents (cAMP dynamic 2, Cis Bio) were added and the cellular cAMP levels were determined using the ENVISION (Perkin Elmer) plate reader.

human A2A receptors = target: T2, human A2A receptors (Homo sapiens, UniProt P29274); test: Functional human A2A receptor activity, recombinant HEK293 cells, cAMP (HTRF); assay type: cell-based
T2 construct: expressed in transfected cells; host or cells: HEK293
Procedure: as §1, §2

T2 sequence (P29274 whole entry): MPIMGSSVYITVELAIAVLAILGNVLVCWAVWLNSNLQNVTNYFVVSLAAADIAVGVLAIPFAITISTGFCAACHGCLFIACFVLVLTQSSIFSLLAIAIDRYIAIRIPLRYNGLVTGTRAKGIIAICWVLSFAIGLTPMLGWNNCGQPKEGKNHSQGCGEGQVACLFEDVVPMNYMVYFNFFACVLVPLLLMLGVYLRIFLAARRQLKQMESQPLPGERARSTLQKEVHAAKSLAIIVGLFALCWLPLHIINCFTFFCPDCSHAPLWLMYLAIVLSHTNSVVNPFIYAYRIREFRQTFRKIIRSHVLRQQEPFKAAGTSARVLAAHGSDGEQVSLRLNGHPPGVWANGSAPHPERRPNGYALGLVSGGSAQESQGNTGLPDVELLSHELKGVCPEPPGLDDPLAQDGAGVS

IC50 (human A2B receptors; read-out: A2B (Category)) [nM] | IC50 (human A2A receptors; read-out: A2A (Category)) [nM] | IC50 (human A2B receptors; read-out: Functional A2B receptor activity HEK293, cAMP IC50) [nM] | IC50 (human A2A receptors; read-out: Functional A2A receptor activity, HEK293, cAMP, IC50) [nM] | SMILES
< 1000 | < 100 |  |  | NC(=O)c1ccc2ncc(-c3nn(CC(F)(F)F)c4cc(C(=O)N5CCCOCC5)ncc34)n2c1 [Compound 246, 3-[6-(1,4-Oxazepane-4-carbonyl)-1-(2,2,2-trifluoro-ethyl)-1H-pyrazolo[4,3-c]pyridin-3-yl]-imidazo[1,2-a]pyridine-6-carboxylic acid amide]
< 1000 | < 100 |  |  | CCCn1nc(-c2cnc3ccc(C(N)=O)cn23)c2cnc(C(=O)N3CCCCCC3)cc21 [Compound 245, 3-[6-(Azepane-1-carbonyl)-1-propyl-1H-pyrazolo[4,3-c]pyridin-3-yl]-imidazo[1,2-a]pyridine-6-carboxylic acid amide]
< 1000 | < 100 |  |  | CS(=O)(=O)Cn1nc(-c2coc3ccccc23)c2cnc(C(=O)N3CCOCC(F)(F)C3)cc21 [Compound 29, (3-Benzofuran-3-yl-1-methanesulfonylmethyl-1H-pyrazolo[4,3-c]pyridin-6-yl)-(6,6-difluoro-1,4-oxazepan-4-yl)-methanone]
< 100 | < 100 |  |  | O=C(c1cc2c(cn1)c(-c1coc3ccc(F)cc13)nn2CC(F)(F)F)N1CC2CCC(C1)O2 [Compound 127, [3-(5-fluorobenzofuran-3-yl)-1-(2,2,2-trifluoroethyl)pyrazolo[4,3-c]pyridin-6-yl]-(8-oxa-3-azabicyclo[3.2.1]octan-3-yl)methanone]
< 100 | < 100 |  |  | CS(=O)(=O)Cn1nc(-c2coc3ccccc23)c2cnc(C(=O)N3CCCC(O)CC3)cc21 (stereo not shown) [Compound 40, (3-Benzofuran-3-yl-1-methanesulfonylmethyl-1H-pyrazolo[4,3-c]pyridin-6-yl)-(4-hydroxyazepan-1-yl)-methanone]
< 1000 | < 100 |  |  | O=C(c1cc2c(cn1)c(-c1cnc3c(F)cc(F)cn13)nn2CC(F)(F)F)N1CCCCCO1 [Compound 191, [3-(6,8-Difluoro-imidazo[1,2-a]pyridin-3-yl)-1-(2,2,2-trifluoro-ethyl)-1H-pyrazolo[4,3-c]pyridin-6-yl]-[1,2]oxazepan-2-yl-methanone]
< 100 | < 100 |  |  | O=C(c1cc2c(cn1)c(-c1coc3ccccc13)nn2CC(F)(F)F)N1CC2CCC(C1)O2 [Compound 100, [3-Benzofuran-3-yl-1-(2,2,2-trifluoro-ethyl)-1H-pyrazolo[4,3-c]pyridin-6-yl]-(8-oxa-3-aza-bicyclo[3.2.1]oct-3-yl)-methanone]
< 1000 | < 100 |  |  | O=C(c1cc2c(cn1)c(-c1coc3ccccc13)nn2CC(F)(F)F)N(C1CC1)C1CC1 [Compound 232, 3-(benzofuran-3-yl)-N,N-di(cyclopropyl)-1-(2,2,2-trifluoroethyl)-pyrazolo[4,3-c]pyridine-6-carboxamide]
< 1000 | < 100 |  |  | O=C(c1cc2c(cn1)c(-c1cnc3c(F)cc(F)cn13)nn2CC(F)(F)F)N1CCC2(CC1)COC2 [Compound 166, [3-(6,8-Difluoro-imidazo[1,2-a]pyridin-3-yl)-1-(2,2,2-trifluoro-ethyl)-1H-pyrazolo[4,3-c]pyridin-6-yl]-(2-oxa-7-aza-spiro[3.5]non-7-yl)-methanone]
< 100 | < 100 |  |  | CS(=O)(=O)Cn1nc(-c2coc3ccccc23)c2cnc(C(=O)N3CC4CCC(C3)O4)cc21 [Compound 107, (3-Benzofuran-3-yl-1-methanesulfonylmethyl-1H-pyrazolo[4,3-c]pyridine-6-yl)-(8-oxa-3-aza-bicyclo[3.2.1]oct-3-yl)-methanone]
< 1000 | < 100 |  |  | CN(CCNC(=O)OC(C)(C)C)C(=O)c1cc2c(cn1)c(-c1cnc3c(F)cc(F)cn13)nn2CC(F)(F)F [Compound 197, (2-{[3-(6,8-Difluoro-imidazo[1,2-a]pyridin-3-yl)-1-(2,2,2-trifluoro-ethyl)-1H-pyrazolo[4,3-c]pyridine-6-carbonyl]-methyl-amino}-ethyl)-carbamic Acid Tert-Butyl Ester]
< 1000 | < 100 |  |  | COc1ccc2ncc(-c3nn(CC(F)(F)F)c4cc(C(=O)N5CCCCCC5)ncc34)n2c1 [Compound 59, Azepan-1-yl-[3-(6-methoxy-imidazo[1,2-a]pyridin-3-yl)-1-(2,2,2-trifluoro-ethyl)-1H-pyrazolo[4,3-c]pyridin-6-yl]-methanone]
< 100 | < 100 |  |  | O=C(c1cc2c(cn1)c(-c1cnc3ccc(F)cn13)nn2CC(F)F)N1CCCCCC1 [Compound 3, Azepan-1-yl-[1-(2,2-difluoro-ethyl)-3-(6-fluoro-imidazo[1,2-a]pyridin-3-yl)-1H-pyrazolo[4,3-c]pyridin-6-yl]-methanone]
< 1000 | < 100 |  |  | O=C(c1cc2c(cn1)c(-c1ccc3ccccn13)nn2CC(F)(F)F)N1CCCCCC1 [Compound 52, Azepan-1-yl-[3-indolizin-3-yl-1-(2,2,2-trifluoro-ethyl)-1H-pyrazolo[4,3-c]pyridin-6-yl]-methanone]
< 1000 | < 100 |  |  | O=C(c1cc2c(cn1)c(-c1cnc3c(F)cc(F)cn13)nn2CC(F)(F)F)N1CCC(O)(c2cccnc2)CC1 [Compound 147, [3-(6,8-Difluoro-imidazo[1,2-a]pyridin-3-yl)-1-(2,2,2-trifluoro-ethyl)-1H-pyrazolo[4,3-c]pyridin-6-yl]-(4′-hydroxy-3′,4′,5′,6′-tetrahydro-2′H-[3,4′]bipyridinyl-1′-yl)-methanone]
< 100 | < 100 |  |  | O=C(c1cc2c(cn1)c(-c1coc3ccc(F)cc13)nn2CC(F)(F)F)N1CCOCC(O)C1 (stereo not shown) [Compound 118, [3-(5-fluorobenzofuran-3-yl)-1-(2,2,2-trifluoroethyl)pyrazolo[4,3-c]pyridin-6-yl]-(6-hydroxy-1,4-oxazepan-4-yl)methanone]
< 1000 | < 100 |  |  | O=C(c1cc2c(cn1)c(-c1cnc3c(F)cc(F)cn13)nn2CC(F)(F)F)N1CCOC2(CCC2)C1 [Compound 192, [3-(6,8-Difluoro-imidazo[1,2-a]pyridin-3-yl)-1-(2,2,2-trifluoro-ethyl)-1H-pyrazolo[4,3-c]pyridin-6-yl]-(5-oxa-8-aza-spiro[3.5]non-8-yl)-methanone]
< 1000 | < 100 |  |  | CS(=O)(=O)Cn1nc(-c2coc3ccccc23)c2cnc(C(=O)N3CCCC(O)C3)cc21 (stereo not shown) [Compound 38, (3-Benzofuran-3-yl-1-methanesulfonylmethyl-1H-pyrazolo[4,3-c]pyridin-6-yl)-(3-hydroxy-piperidin-1-yl)-methanone]
< 1000 | < 100 |  |  | O=C(c1cc2c(cn1)c(-c1cnc3c(F)cc(F)cn13)nn2CC(F)(F)F)N1CC2COC(C2)C1 (stereo not shown) [Compound 199, [3-(6,8-Difluoro-imidazo[1,2-a]pyridin-3-yl)-1-(2,2,2-trifluoro-ethyl)-1H-pyrazolo[4,3-c]pyridin-6-yl]-(6-oxa-3-aza-bicyclo[3.2.1]oct-3-yl)-methanone]
< 1000 | < 100 |  |  | O=C(c1cc2c(cn1)c(-c1cnn3ccccc13)nn2CC(F)(F)F)N1CCOCC(O)C1 (stereo not shown) [Compound 119, (6-hydroxy-1,4-oxazepan-4-yl)-[3-pyrazolo[1,5-a]pyridin-3-yl-1-(2,2,2-trifluoroethyl)pyrazolo[4,3-c]pyridin-6-yl]methanone]
 |  | < 1000 | < 100 | O=C(c1ccc2c(-c3cnc4c(F)cc(F)cn34)nn(CC(F)(F)F)c2c1)N1CCCCCC1 [analogue to No. 60, reference compound]
< 1000 | < 100 |  |  | Cc1cc(C(N)=O)cn2c(-c3nn(CC(F)(F)F)c4cc(C(=O)N5CCCCCC5)ncc34)cnc12 [Compound 244, 3-[6-(Azepane-1-carbonyl)-1-(2,2,2-trifluoro-ethyl)-1H-pyrazolo[4,3-c]pyridin-3-yl]-8-methyl-imidazo[1,2-a]pyridine-6-carboxylic acid amide]
< 100 | < 100 |  |  | CS(=O)(=O)Cn1nc(-c2coc3ccc(F)cc23)c2cnc(C(=O)N3CC4CCC(C3)O4)cc21 [Compound 111, [3-(5-fluorobenzofuran-3-yl)-1-(methylsulfonylmethyl)pyrazolo[4,3-c]-pyridin-6-yl]-(8-oxa-3-azabicyclo[3.2.1]octan-3-yl)methanone]

SMILES | IC50 (human A2B receptors; read-out: A2B (Category)) [nM] | IC50 (human A2A receptors; read-out: A2A (Category)) [nM] | IC50 (human A2B receptors; read-out: Functional A2B receptor activity HEK293, cAMP IC50) [nM] | IC50 (human A2A receptors; read-out: Functional A2A receptor activity, HEK293, cAMP, IC50) [nM]
O=C(c1cc2c(cn1)c(-c1cnc3c(F)cc(F)cn13)nn2CC(F)(F)F)N1C2CCCC1CC2 [Compound 172, (8-Aza-bicyclo[3.2.1]oct-8-yl)-[3-(6,8-difluoro-imidazo[1,2-a]pyridin-3-yl)-1-(2,2,2-trifluoro-ethyl)-1H-pyrazolo[4,3-c]pyridin-6-yl]-methanone] | < 100 | < 100 |  | 
CS(=O)(=O)Cn1nc(-c2cnc3c(F)cc(F)cn23)c2cnc(C(=O)N3[C@@H]4CC[C@H]3C[C@@H](O)C4)cc21 [Compound 25, [3-(6,8-Difluoro-imidazo[1,2-a]pyridin-3-yl)-1-methanesulfonylmethyl-1H-pyrazolo[4,3-c]pyridin-6-yl]-(3-endo-hydroxy-8-aza-bicyclo[3.2.1]oct-8-yl)-methanone] | < 100 | < 100 |  | 
O=C(c1cc2c(cn1)c(-c1cnc3ccc(O)cn13)nn2CC(F)(F)F)N1[C@@H]2CC[C@H]1C[C@@H](O)C2 [Compound 88, (3-endo-hydroxy-8-azabicyclo[3.2.1]octan-8-yl)-[3-(6-hydroxyimidazo[1,2-a]pyridin-3-yl)-1-(2,2,2-trifluoroethyl)pyrazolo[4,3-c]pyridin-6-yl]methanone] | < 1000 | < 100 |  | 
